Reference: ChEMBL document CHEMBL1136862, “Development of thioquinazolinones, allosteric Chk1 kinase inhibitors” (Bioorg Med Chem Lett, 2009)

target: T1, Serine/threonine-protein kinase Chk1 (Homo sapiens, UniProt O14757); assay: Inhibition of C-terminal 6-His tagged human Chk1 by HTRF assay in presence of 0.1 mM ATP
T1 sequence (O14757 whole entry): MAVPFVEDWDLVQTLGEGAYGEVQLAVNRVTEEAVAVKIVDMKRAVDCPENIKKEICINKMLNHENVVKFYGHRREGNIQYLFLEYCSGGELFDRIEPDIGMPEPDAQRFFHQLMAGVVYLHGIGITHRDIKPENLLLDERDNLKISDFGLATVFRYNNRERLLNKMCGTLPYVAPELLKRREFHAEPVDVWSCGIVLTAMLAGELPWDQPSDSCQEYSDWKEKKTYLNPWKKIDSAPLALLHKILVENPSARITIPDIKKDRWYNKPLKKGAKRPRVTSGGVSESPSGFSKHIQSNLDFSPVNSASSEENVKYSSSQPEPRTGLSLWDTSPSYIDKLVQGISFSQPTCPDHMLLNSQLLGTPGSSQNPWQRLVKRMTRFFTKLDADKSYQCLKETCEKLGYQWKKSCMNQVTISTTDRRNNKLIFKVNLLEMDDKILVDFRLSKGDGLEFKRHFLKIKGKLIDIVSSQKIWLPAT

| Compound | IC50 |
| --- | --- |
| CCCCC(Sc1nc2ccccc2c(=O)n1-c1ccccc1)C(=O)N1CCN(c2ccccc2)CC1 (stereo not drawn) | 3.3 µM |
| CCCCC(Sc1nc2cccc(C)c2c(=O)n1-c1cccc(Cl)c1)C(=O)N1CCC(C(N)=O)CC1 (stereo not drawn) | > 100 µM |
| CCCCC(Sc1nc2c(OC)cccc2c(=O)n1-c1cccc(Cl)c1)C(=O)N1CCC(C(N)=O)CC1 (stereo not drawn) | 21 µM |
| NC(=O)C1CCN(C(=O)C(Sc2nc3ccccc3c(=O)n2-c2cccc(Cl)c2)c2ccccc2)CC1 (stereo not drawn) | 21 µM |
| CC(C)CC(Sc1nc2ccccc2c(=O)n1-c1cccc(Cl)c1)C(=O)N1CCC(C(N)=O)CC1 (stereo not drawn) | 2.8 µM |
| CCCCC(Sc1nc2cc(C)ccc2c(=O)n1-c1cccc(Cl)c1)C(=O)N1CCC(C(N)=O)CC1 (stereo not drawn) | 28 µM |
| CCCCC(Sc1nc2ccccc2c(=O)n1-c1ccccc1)C(=O)N1CCCC2(CCCNC2)C1 (stereo not drawn) | 3.8 µM |
| CCCCC(Sc1nc2ccccc2c(=O)n1-c1ccccc1)C(=O)N1CCC(c2ccccc2)(c2ccccc2)CC1 (stereo not drawn) | 4.5 µM |
| CCCCC(Sc1nc2ccccc2c(=O)n1-c1ccccc1Cl)C(=O)N1CCC(C(N)=O)CC1 (stereo not drawn) | 41 µM |

The remaining lines, values ahead:

| IC50 | Compound |
| --- | --- |
| 17 µM | CCCCC(Sc1nc2c(C)cccc2c(=O)n1-c1cccc(Cl)c1)C(=O)N1CCC(C(N)=O)CC1 (stereo not drawn) |
| 6 µM | CCCCC(Sc1nc2ccccc2c(=O)n1-c1ccccc1)C(=O)N1CCS(=O)(=O)CC1 (stereo not drawn) |
| > 100 µM | CCCCC(Sc1nc2ccccc2c(=O)n1-c1ccc(Cl)cc1)C(=O)N1CCC(C(N)=O)CC1 (stereo not drawn) |
| > 100 µM | CCCCC(Sc1nc2ccccc2c(=O)n1-c1ccccc1)C(=O)NC12CC3CC(CC(C3)C1)C2 (stereo not drawn) |
| > 100 µM | CCCCC(Sc1nc2ccccc2c(=O)n1-c1ccccc1)C(=O)NC(C)(C)C (stereo not drawn) |
| > 100 µM | CCCCC(Sc1nc2ccccc2c(=O)n1-c1ccccc1)C(=O)NC1CCCCC1 (stereo not drawn) |
| 17 µM | CCCCC(Sc1nc2ccccc2c(=O)n1-c1ccccc1)C(=O)N1CCC(C(N)=O)CC1 (stereo not drawn) |
| > 100 µM | CC(C)C(Sc1nc2ccccc2c(=O)n1-c1cccc(Cl)c1)C(=O)N1CCC(C(N)=O)CC1 (stereo not drawn) |
| 20 µM | CCCCC(Sc1nc2c(O)cccc2c(=O)n1-c1cccc(Cl)c1)C(=O)N1CCC(C(N)=O)CC1 (stereo not drawn) |

target: T2, Serine/threonine-protein kinase Chk1 (Homo sapiens) (UniProt O14757); assay: Inhibition of C-terminal 6-His tagged human Chk1 at 100 uM by HTRF assay in presence of 0.1 mM ATP
T2 sequence (whole entry): T1 sequence (O14757 whole entry)

| Compound | inhibition |
| --- | --- |
| CCCCC(Sc1nc2ccccc2c(=O)n1C)C(=O)N1CCC(C(N)=O)CC1 (stereo not drawn) | 48% |
| CCCCC(Sc1nc2ccccc2c(=O)n1-c1ccnc(Cl)c1)C(=O)N1CCC(C(N)=O)CC1 (stereo not drawn) | 20% |
| CCCCC(Sc1nc2ccccc2c(=O)n1-c1ccccc1)C(=O)NC1CC2CCC1C2 (stereo not drawn) | 3% |
| CCCCC(Sc1nc2ccccc2c(=O)n1-c1cccnc1)C(=O)N1CCC(C(N)=O)CC1 (stereo not drawn) | 35% |
| CCCCC(Sc1nc2ccccc2c(=O)n1C1CCCCC1)C(=O)N1CCC(C(N)=O)CC1 (stereo not drawn) | 17% |

Results, then the molecule that gave them:

| inhibition | Compound |
| --- | --- |
| 26% | CCCCC(Sc1nc2ccccc2c(=O)n1Cc1cccnc1)C(=O)N1CCC(C(N)=O)CC1 (stereo not drawn) |
| 20% | CCCCC(Sc1nc2ccccc2c(=O)n1C(C)C)C(=O)N1CCC(C(N)=O)CC1 (stereo not drawn) |
| 30% | CCCCC(Sc1nc2ccc(C)cc2c(=O)n1-c1cccc(Cl)c1)C(=O)N1CCC(C(N)=O)CC1 (stereo not drawn) |
| 62% | CCCCC(Sc1nc2ccccc2c(=O)n1-c1ccccc1)C(=O)N(CC)CC (stereo not drawn) |

target: T1, Serine/threonine-protein kinase Chk1; assay: Inhibition of C-terminal 6-His tagged human Chk1 by HTRF assay in presence of 2.0 mM ATP

| IC50 | Compound |
| --- | --- |
| 24 µM | CCCCC(Sc1nc2ccccc2c(=O)n1-c1ccccc1)C(=O)N1CCC(C(N)=O)CC1 (stereo not drawn) |
